The values below come from ChEMBL document CHEMBL3507680, “University of Dundee, Gates Library screen for HepG2 cell viability”.

This data set can be described thus: Human HepG2 cell viability assay in 384 well format. The data set is classed as toxicity, cell-based. Also noted: dose 125 nL, time 70.5 hour; cytotoxicity at 70.5 h: concentration not given beside the values. Conditions: HepG2 cells, read-out: Inhibition.
On to `CCS(=O)(=O)N(C)C1CCN(C(=O)c2ccc(Cl)cc2)CC1`, for which the cytotoxicity at 70.5 h was -15.5%.

Regarding `Cn1c(N)nnc1SC1CCCN(c2ccccc2F)C1=O` (stereo unspecified), the cytotoxicity at 70.5 h is -1.56%.

Regarding `CSc1ccccc1C(=O)C1CCCN(Cc2cc(C(C)C)[nH]n2)C1` (stereo unspecified), the cytotoxicity at 70.5 h was -6.68%.

As for `CC(C)n1nc2c(cc1=O)CN(Cc1nc(-c3ccoc3)no1)CC2`, the cytotoxicity at 70.5 h was determined as 17%.

As to `CS(=O)(=O)c1snnc1C1CCN(Cc2ccncc2)CC1`, the cytotoxicity at 70.5 h is -7.11%.

Take `CSCC1CCCN(c2ncnc3oc(C)nc23)C1` (stereo unspecified): the cytotoxicity at 70.5 h was -9.81%.

With `Cn1cc(CN2CCCC(CCc3ccc(F)cc3F)C2)cn1` (stereo unspecified), the cytotoxicity at 70.5 h was -3.89%.

`CCN(C)Cc1cccc(CNC(=O)NCCc2ccccn2)c1`: the cytotoxicity at 70.5 h was -3.19%.

`CCNC(=O)[C@@H]1C[C@@H](n2cc(CC3CCCCC3)nn2)CN1`: the cytotoxicity at 70.5 h is -9.79%.

As to `COc1ccc(S(=O)(=O)NCCCc2nnc3nc(C)cc(C)n23)cc1`, the cytotoxicity at 70.5 h was -7.77%.

Consider `CC(c1ccc(Cl)cc1)N1CCN(CCNS(C)(=O)=O)CC1` (stereo unspecified), for which the cytotoxicity at 70.5 h is -0.037%.

With `COc1ccc(CCNC(=O)C(C)Nc2ccc(C)c(C)c2)cc1` (stereo unspecified), the cytotoxicity at 70.5 h was found to be 21%.

Regarding `CCCC(=O)NCc1cc(Br)c(OC)c(OC)c1`, the cytotoxicity at 70.5 h is -6.96%.

For `CN(C)c1ccc(C2CC(=O)Nc3c2cnn3Cc2ccco2)cc1` (stereo unspecified), the cytotoxicity at 70.5 h was -7.08%.

In the case of `O=C(NCCn1cccn1)C1CCC(=O)N(CC2CCCCC2)C1` (stereo unspecified), the cytotoxicity at 70.5 h turned out to be 18%.

`CN1CCN(C2CCN(CCOc3ccc(C#N)cc3)CC2)C1=O`: the cytotoxicity at 70.5 h was -5.65%.

For `Cc1ccccc1CSc1nc(N)cc(N2CC[C@@H](O)C2)n1`, the cytotoxicity at 70.5 h was -6.37%.

`Cn1ccc(C(=O)N2CCc3[nH]nc(Nc4ccccc4)c3C2)n1`: the cytotoxicity at 70.5 h came to 1.75%.

Regarding `CC(NC(=O)N1CCC2(C1)OCCO2)c1ccc(F)cc1Cl` (stereo unspecified), the cytotoxicity at 70.5 h is 4.97%.

For the compound `CCCC(=O)NC(C)c1nnc2n1CCC2` (stereo unspecified), the cytotoxicity at 70.5 h was -15.3%.

Take `Cc1ccc(C(=O)N2CCCC(c3cc(C(F)(F)F)[nH]n3)C2)o1` (stereo unspecified): the cytotoxicity at 70.5 h was -5.23%.

On to `COc1ccc(Br)cc1CCC(=O)N1CCCC(O)C1` (stereo unspecified), for which the cytotoxicity at 70.5 h was -5.19%.

As for `CNC(=O)C(C)(C)N1CCC[C@H]1C(=O)NCC1CC1`, the cytotoxicity at 70.5 h amounted to 9.57%.

For the compound `O=S(=O)(c1ccc(Cl)cc1)N1CCC(OCc2ccccn2)C1` (stereo unspecified), the cytotoxicity at 70.5 h turned out to be 2.04%.

For the compound `CN(Cc1ccsc1)C(=O)c1cc(S(=O)(=O)N(C)C)ccc1Cl`, the cytotoxicity at 70.5 h was -7.18%.

Regarding `COc1cccc(C2SCC(=O)Nc3ccsc32)c1` (stereo unspecified), the cytotoxicity at 70.5 h stood at 0.777%.

Turning to `Cc1ccc(OCC(C)NS(=O)(=O)Cc2ccon2)cc1` (stereo unspecified), the cytotoxicity at 70.5 h was -9.91%.

Turning to `CCCC(=O)N1CCC(Nc2ncc(Br)cn2)CC1`, the cytotoxicity at 70.5 h came to 0.868%.

Turning to `CN(CC1CCCCO1)C(=O)c1ccnc(OC2CCC2)c1` (stereo unspecified), the cytotoxicity at 70.5 h is -5.26%.

As for `Cc1ccc(C(=O)N2CCN(CCCSCC#N)CC2)o1`, the cytotoxicity at 70.5 h is -3.91%.

In the case of `CSc1ccc(CNC(c2ccccc2)c2nccn2C)cc1` (stereo unspecified), the cytotoxicity at 70.5 h was -1.21%.

`COCCN(Cc1sccc1C)Cc1nccn1CCOC`: the cytotoxicity at 70.5 h is -4.3%.

For `CCn1cnnc1CCNC(=O)c1ccc(Br)cc1F`, the cytotoxicity at 70.5 h is -4.19%.

Consider `COC(=O)CCCN(C)C(c1cccnc1)c1ccc(F)cc1F` (stereo unspecified), for which the cytotoxicity at 70.5 h came out at 5.6%.

As to `Cc1nc(C2CCCN2CCc2cccs2)no1` (stereo unspecified), the cytotoxicity at 70.5 h was -10.4%.

Turning to `CC(C)N(C)Cc1cc(=O)n2c(n1)CN(C(=O)c1ccnnc1)CCC2`, the cytotoxicity at 70.5 h is -2.81%.

Regarding `O=c1n(Cc2ccccn2)nc(C2CCNCC2)n1Cc1ccccc1`, the cytotoxicity at 70.5 h was found to be 1.51%.

Consider `CCCc1n[nH]c(C2CN(CCCS(=O)(=O)N(C)C)CCO2)n1` (stereo unspecified), for which the cytotoxicity at 70.5 h was -4.5%.

With `COc1ccc(S(=O)(=O)Nc2cnc(N(C)C)nc2)cc1`, the cytotoxicity at 70.5 h came out at 29.6%.

As for `CC(C)NS(=O)(=O)c1cc(C(=O)O)cc(-c2ccccc2F)c1`, the cytotoxicity at 70.5 h was -10.8%.

For the compound `Cc1nnc2n1CCN(Cc1csc(-c3ccsc3)n1)C2`, the cytotoxicity at 70.5 h was -5.37%.

In the case of `O=C(COCC1CC1)Nc1cc(-c2ccc(Br)s2)n[nH]1`, the cytotoxicity at 70.5 h is -5.77%.

As to `CC1CN(C(=O)c2nccnc2N)c2ccc(F)cc2O1` (stereo unspecified), the cytotoxicity at 70.5 h was found to be 1.2%.

Turning to `CCSc1nc(N)c(NC(=O)c2ccc(OC)c(OC)c2)c(=O)[nH]1`, the cytotoxicity at 70.5 h is 11.2%.

On to `Cn1cc(C(=O)N2CCC(Cc3nccs3)CC2)cn1`, for which the cytotoxicity at 70.5 h was found to be 22.3%.

With `O=C(CS(=O)(=O)C1CCCC1)NC1CCc2nccn2C1` (stereo unspecified), the cytotoxicity at 70.5 h was -9.54%.

For `CC(C)(C)c1nc(C(C)(C)NC(=O)C2CC(=O)N(CC3CC3)C2)no1` (stereo unspecified), the cytotoxicity at 70.5 h was -1.01%.

For `CCOc1ccc(NC(C)=O)cc1S(=O)(=O)Nc1cc(C)on1`, the cytotoxicity at 70.5 h was -6.08%.

Regarding `NC[C@H]1CC[C@H](c2c(C(N)=O)sc3ccccc32)CC1`, the cytotoxicity at 70.5 h was -3.54%.

On to `Cc1cccc(-c2nc(C)nn2CC(=O)NC2CCCC2)c1`, for which the cytotoxicity at 70.5 h came out at 3.32%.

As to `CN1CCN(C(=O)Cc2ccc(F)cc2)Cc2cccnc21`, the cytotoxicity at 70.5 h turned out to be 5.52%.

Take `CN(Cc1ccccc1CN1CCCC1)C(=O)c1c(O)cccc1O`: the cytotoxicity at 70.5 h amounted to 7.79%.

For the compound `CNc1nc(CNC(=O)Nc2ccccc2OC(C)C)cs1`, the cytotoxicity at 70.5 h is 14%.

As for `O=C(O)c1cc(S(=O)(=O)Nc2ccccc2)cc2c1OCCO2`, the cytotoxicity at 70.5 h is 4.5%.

As to `Cc1nn(C)c(N(C)C)c1CNCc1cccc(OCCN(C)C)c1`, the cytotoxicity at 70.5 h was 27.3%.

For the compound `COc1cc(CNCCc2cnn(C)c2)cc2c1OCO2`, the cytotoxicity at 70.5 h was -8.59%.

On to `CC(C)c1ccccc1OCCNC(=O)N1CCC(CC(N)=O)CC1`, for which the cytotoxicity at 70.5 h is -4.04%.

Turning to `COCCOCc1cccc(NC(=O)N2CCCC2c2ccncc2)c1` (stereo unspecified), the cytotoxicity at 70.5 h turned out to be 1.97%.

In the case of `CC(C)CCNc1nc(C(=O)NC2CC2)cs1`, the cytotoxicity at 70.5 h stood at 6.98%.

`CCCc1nnc(N2CCC(N3CCN(CCO)CC3)CC2)o1`: the cytotoxicity at 70.5 h was -5.69%.

On to `COc1ccc(CN2CCC(O)(CN3CCCCC3)C2)c(C)c1` (stereo unspecified), for which the cytotoxicity at 70.5 h is -1.76%.

Consider `CCN(C)S(=O)(=O)NCC(C)(O)c1ccsc1` (stereo unspecified), for which the cytotoxicity at 70.5 h is -0.398%.

`O=C(NCc1ccccc1CN1CCCC1)Nc1nncs1`: the cytotoxicity at 70.5 h stood at 3.29%.

Take `CC1(C(N)=O)CCCN(c2cnccn2)C1` (stereo unspecified): the cytotoxicity at 70.5 h is 5.53%.

For the compound `CNc1nc(CNC(=O)Nc2cccc(-c3ncc(C)o3)c2)cs1`, the cytotoxicity at 70.5 h worked out at 9.47%.

For `Cc1c(C(=O)N2CCCC(C(=O)c3nccn3C)C2)c[nH]c(=O)c1C#N` (stereo unspecified), the cytotoxicity at 70.5 h was -7.06%.

With `COc1cccc(CC(=O)N2CCCC(n3nc(C)cc3C)C2)c1` (stereo unspecified), the cytotoxicity at 70.5 h is -14.1%.

As for `CC1N(c2cnn(C)c2)C(=O)COC12CCN(c1ncccn1)CC2` (stereo unspecified), the cytotoxicity at 70.5 h was -1.11%.

For `O=C(NCC1(CO)CC1)c1ccccc1F`, the cytotoxicity at 70.5 h is -8.21%.

`FC(F)(F)Oc1cccc(CNC[C@H]2Cn3ccnc3CO2)c1`: the cytotoxicity at 70.5 h turned out to be 0.704%.

For the compound `Cc1noc(-c2ccc(N(C)Cc3cccnc3)nc2)n1`, the cytotoxicity at 70.5 h is -15.4%.

On to `CC(NC(=O)C1=NN(C)C(=O)CC1)c1ccc(F)cc1F` (stereo unspecified), for which the cytotoxicity at 70.5 h was 20%.

Take `CCC(=O)N1CCC2(CC1)CC(CC(N)=O)c1ccc(F)cc12` (stereo unspecified): the cytotoxicity at 70.5 h is -7.49%.

`N#Cc1ccc(CN2CCCC2Cn2cccn2)cc1` (stereo unspecified): the cytotoxicity at 70.5 h came to 2.25%.

Turning to `Cc1nn(-c2ccc(F)cc2)c2[nH]nc(N)c12`, the cytotoxicity at 70.5 h turned out to be 8.73%.

For the compound `CCN1C[C@@H]2[C@@H](OC)CCN(S(=O)(=O)c3cccnc3)[C@@H]2C1`, the cytotoxicity at 70.5 h was -10.5%.

For `CCCNC(=O)c1cc(-c2cnc(N3CCCC3)nc2)cn1C`, the cytotoxicity at 70.5 h worked out at 3.66%.

Take `CN(C)CCN1CCO[C@@H]2CN(C(=O)c3cccs3)CC[C@@H]2C1`: the cytotoxicity at 70.5 h was -16.4%.

As for `CCOCC1CCN(C(=O)Nc2ccc(-c3csnn3)cc2)C1` (stereo unspecified), the cytotoxicity at 70.5 h is -11.9%.

`O=C1N(c2cccc(F)c2)Cc2nc(=O)[nH]n21`: the cytotoxicity at 70.5 h is -7.69%.

On to `c1nc2n(n1)CC(NCc1csc(-c3ccsc3)n1)CC2` (stereo unspecified), for which the cytotoxicity at 70.5 h was -17.5%.

Turning to `Cc1csc(CCNc2ccc(C#N)cc2F)n1`, the cytotoxicity at 70.5 h is -10.7%.

Regarding `CCc1noc(CN(C)Cc2ccc(N3CCCCC3)cc2)n1`, the cytotoxicity at 70.5 h was -7.61%.

For `CCOCc1cc(CNC2CCCc3c2cnn3CC)ccc1OC` (stereo unspecified), the cytotoxicity at 70.5 h was -1.88%.

Consider `O=C(N[C@@H]1CN(Cc2ccc3[nH]ccc3c2)C[C@H]1O)c1cscn1`, for which the cytotoxicity at 70.5 h turned out to be 19.9%.

For the compound `CCC1=N[C@@]2(CC[C@@H]3CN(C(=O)NCC(C)C)C[C@@H]32)C(=O)N1CC(C)C`, the cytotoxicity at 70.5 h was -9.11%.

`CNC(=O)Cc1cc2nccc(-c3c(OC)cccc3OC)n2n1`: the cytotoxicity at 70.5 h was -7.19%.

As to `CN1CCN(c2ncnc3c2CCN(S(=O)(=O)C2CC2)CC3)CC1`, the cytotoxicity at 70.5 h was -11.6%.

For the compound `CN1CC2(CCN(C(=O)c3cccc(-n4cccn4)c3)CC2)OC1=O`, the cytotoxicity at 70.5 h is 21.3%.

`O=C(N[C@@H]1CN(Cc2ccoc2)[C@@H]2CCCO[C@@H]21)C1CC1`: the cytotoxicity at 70.5 h was -12.9%.

On to `O=C(Nc1ccccn1)N(CCO)Cc1ccccc1Br`, for which the cytotoxicity at 70.5 h is -2.33%.

On to `CCC(NC(=O)c1cccc2[nH]ccc12)C(=O)N1CCOCC1` (stereo unspecified), for which the cytotoxicity at 70.5 h was -6.49%.

`Cc1cnn(CCNCC(=O)NC2(C#N)CCCC2)c1`: the cytotoxicity at 70.5 h is -0.423%.

In the case of `CS(=O)(=O)N1C[C@@H]2CC[C@H](C1)N(C(=O)CCc1ccsc1)C2`, the cytotoxicity at 70.5 h is -2.59%.

For the compound `O=C(NCC1CCCO1)c1cc(Sc2ncccn2)ccn1` (stereo unspecified), the cytotoxicity at 70.5 h is 24.8%.

`CNC(=O)c1n[nH]c2c1C(c1cccc3nsnc13)CC(=O)N2` (stereo unspecified): the cytotoxicity at 70.5 h is -3.59%.

Turning to `Cc1ccc(-c2nc(CNS(=O)(=O)N(C)C)[nH]c2-c2ccccn2)cc1`, the cytotoxicity at 70.5 h is -2.34%.

For `O=C1CC2(CCN(C(=O)C3CCCCC3)C2)Nc2ccccc2N1` (stereo unspecified), the cytotoxicity at 70.5 h is -9.46%.

Take `COc1ncc(-c2ccc(NC(C)=O)cc2)c(OC)n1`: the cytotoxicity at 70.5 h was -11%.

As to `O=C(N1CCOCC1CO)C1(c2cccs2)CCCC1` (stereo unspecified), the cytotoxicity at 70.5 h is -4.96%.

Consider `Cc1nc(CNCC2Cn3nncc3CO2)cs1` (stereo unspecified), for which the cytotoxicity at 70.5 h is -2.11%.
